Bridge positions count the residues as written; N and C are the ends. Square brackets hold non-standard residues; d marks the D form. Peptide text beside a SMILES is read from it. ξ: configuration not given here. Phe(4-CF3) = N[C@@H](Cc1ccc(C(F)(F)F)cc1)C(=O)O; Bip = N[C@@H](Cc1ccc(-c2ccccc2)cc1)C(=O)O; Phe(4-Cl) = N[C@@H](Cc1ccc(Cl)cc1)C(=O)O; NMeF = CN[C@@H](Cc1ccccc1)C(=O)O; hSer = N[C@@H](CCO)C(=O)O; NMeA = CN[C@@H](C)C(=O)O; ξD = NC(CC(=O)O)C(=O)O
Molecular target: human PCSK9 (Homo sapiens, UniProt Q8NBP7)
Assay: PCSK9 ligand binding assay (TR-FRET): interference with binding of human PCSK9 to human LDLR
Conditions: PCSK9 FRET assay, efficacy (Amax); 0% = DMSO, 100% = 1 uM unlabeled human PCSK9
Experimental: The activity of cyclic polypeptides according to the disclosure as PCSK9 can be assessed using a time resolved fluorescence resonance energy transfer (TR-FRET) assay. This time resolved fluorescence resonance energy transfer (TR-FRET) assay measures the ability of a cyclic polypeptides of the disclosure to interfere with the binding of human PCSK9 to human LDLR, providing measures of both potency (IC50) and efficacy (Amax).
Solutions of varying concentrations are prepared by diluting a cyclic polypeptide of the disclosure in dimethylsulfoxide (DMSO) and the resulting solutions are pipetted into a plate. DMSO is used as a negative control. An intermediate plate is prepared in by transferring a known amount of each polypeptide solution and of the control from the compound plate into a corresponding well containing assay buffer and mixing thoroughly. A third plate is then prepared to be used for the assay by adding Human PCSK9 Alexa Fluor 647, followed by a known amount of each solution from the intermediate plate. Unlabeled human PCSK9 in assay buffer containing DMSO is used as a positive control for the assay. Following incubation, Human LDLR extracellular domain-Europium Kryptate is added to each well of the assay plate and the resulting mixture is incubated for an additional period of time. The TR-FRET signal is measured and the FRET ratio (FRET/Europium) is used to calculate the IC50 and Amax of the cyclic polypeptides.
The PCSK9 binding of the cyclic polypeptides of the disclosure were measured using a time resolved fluorescence resonance energy transfer (TR-FRET) assay. This time resolved fluorescence resonance energy transfer (TR-FRET) assay measures the ability of a cyclic polypeptide of the disclosure to interfere with the binding of human PCSK9 to human LDLR, providing measures of both potency (IC50) and efficacy (Amax).
• Human PCSK9 • Human PCSK9 Alexa Fluor 647 • Human LDLR extracellular domain-Europium Kryptate • Proxi plate-low volume assay plate (PerkinElmer #6008280) • Greiner V-bottom (Greiner BioOne #781280) • Assay Buffer • 20 mM HEPES, pH 7.5 • 150 mM NaCl • 1 mM CaCl2 • 0.01% v/v Tween20 • 0.01% w/v BSA
A master compound plate was prepared in a Greiner V bottom plate by diluting cyclic polypeptides of the disclosure in dimethylsulfoxide to the correct concentration for the desired top concentration based on the desired final concentration: for a 30 uM final concentration the master plate concentration is 1.5 mM (68 uL DMSO+12 uL 10 mM of a cyclic polypeptide of the disclosure), for a 10 uM final concentration the master plate concentration is 0.5 mM (76 uL DMSO+4 uL 10 mM of a cyclic polypeptide of the disclosure), for a 3 uM final concentration the master plate concentration is 150 uM (69 uL DMSO+1 uL 10 mM a cyclic peptide of the disclosure). These solutions were pipetted into columns 1 and 11 of the compound plate. Threefold serial dilutions were generated in columns 2-10 and 12-20 of the compound plate by transferring 10 uL into 20 μL of DMSO. Columns 21 and 22 of the compound plate were negative controls containing DMSO alone.
An intermediate plate was generated in a Greiner V bottom plate by transferring 8 uL from each well of the master plate into a corresponding well containing 92 μL of assay buffer and mixing thoroughly.
A Proxi plate-low volume assay plate was used for the assay. To all wells of the plate was added 10 μL of 16 nM Human PCSK9 Alexa Fluor 647, followed by 5 uL from the intermediate plate. […] Following a 30 minute incubation, 5 μL of 4 nM Human LDLR extracellular domain-Europium Kryptate was added and the mixture was incubated for an additional 2 hours.
The TR-FRET signal was measured on an EnVision or PheraStar instrument with a […] delay, 330 nm excitation and 665 nm emission (FRET), and 330 nm excitation and 615 nm (Europium). The FRET ratio (FRET/Europium) was used for calculations. […]

Chain of human PCSK9 (Q8NBP7 153-692): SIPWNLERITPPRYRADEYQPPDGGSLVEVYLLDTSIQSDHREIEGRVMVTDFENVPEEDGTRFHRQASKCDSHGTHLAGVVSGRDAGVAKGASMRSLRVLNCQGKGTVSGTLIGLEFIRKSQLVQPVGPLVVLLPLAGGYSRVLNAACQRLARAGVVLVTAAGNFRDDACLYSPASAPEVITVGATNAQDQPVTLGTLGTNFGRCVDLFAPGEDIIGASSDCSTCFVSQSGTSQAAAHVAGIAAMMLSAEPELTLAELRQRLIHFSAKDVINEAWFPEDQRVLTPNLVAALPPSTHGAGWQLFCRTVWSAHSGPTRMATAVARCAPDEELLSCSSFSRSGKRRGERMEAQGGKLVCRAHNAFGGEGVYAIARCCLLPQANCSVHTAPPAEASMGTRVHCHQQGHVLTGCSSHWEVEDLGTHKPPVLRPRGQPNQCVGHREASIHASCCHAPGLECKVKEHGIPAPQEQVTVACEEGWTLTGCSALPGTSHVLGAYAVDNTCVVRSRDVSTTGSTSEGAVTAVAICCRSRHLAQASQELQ
Chain of human PCSK9 (Q8NBP7 31-152 partner limits assumed): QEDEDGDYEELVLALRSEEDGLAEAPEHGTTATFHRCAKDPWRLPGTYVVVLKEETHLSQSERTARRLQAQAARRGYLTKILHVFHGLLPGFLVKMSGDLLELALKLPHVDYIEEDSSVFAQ

SMILES | Maximum % inhibition [%]
CC(C)[C@@H]1NC(=O)[C@H](Cc2ccccc2)NC(=O)CSC[C@@H](C(=O)NCC(N)=O)NC(=O)[C@@H]2CCCN2C(=O)[C@H](C)NC(=O)[C@H](CCC(=O)O)NC(=O)[C@H](C)N(C)C(=O)[C@H](Cc2ccc(-c3ccccc3)cc2)NC(=O)[C@H](Cc2ccccc2)N(C)C(=O)[C@H](C)NC(=O)[C@H]([C@@H](C)O)NC(=O)[C@H]([C@@H](C)O)NC(=O)[C@H](CC(=O)O)NC1=O [Example 1-16, Ac*-F-V-D-T-T-A-(N-Me)F-B-(N-Me)A-E-A-P-C*-G-NH2] ({CH2CO}-FVDTTA[NMeF][Bip][NMeA]EAPCG-NH2; thioether N-13) | 91
CC(C)[C@@H]1NC(=O)[C@H](Cc2ccccc2)NC(=O)CSC[C@@H](C(N)=O)NC(=O)[C@@H]2CCCN2C(=O)[C@H](C)NC(=O)C(CC(=O)O)NC(=O)[C@H](C)N(C)C(=O)[C@H](Cc2ccc(Cl)cc2)NC(=O)[C@H](C)N(C)C(=O)[C@H](Cc2ccccc2)NC(=O)[C@H]([C@@H](C)O)NC(=O)[C@H]([C@@H](C)O)NC(=O)[C@@H]2CCCN2C1=O (stereo partly drawn) [Example 2-2, Ac*-F-V-P-T-T-F-(N-Me)A-(p-Cl)F-(N-Me)A-D-A-P-C*-NH2] ({CH2CO}-FVPTTF[NMeA][Phe(4-Cl)][NMeA][ξD]APC-NH2; thioether N-13) | 72
CC(C)[C@@H]1NC(=O)[C@H](Cc2ccccc2)NC(=O)CSC[C@@H](C(=O)NCC(N)=O)NC(=O)[C@@H]2CCCN2C(=O)[C@H](CCCNC(=N)N)NC(=O)[C@H](CCC(=O)O)NC(=O)[C@H](C)N(C)C(=O)[C@H](Cc2ccc(C(F)(F)F)cc2)NC(=O)[C@H](C)N(C)C(=O)[C@H](Cc2ccc(C(F)(F)F)cc2)NC(=O)[C@H]([C@@H](C)O)NC(=O)[C@H]([C@@H](C)O)NC(=O)[C@H](CO)NC1=O [Example 1-11, Ac*-F-V-S-T-T-(p-CF3)F-(N-Me)A-(p-CF3)F-(N-Me)A-E-R-P-C*-G-NH2] ({CH2CO}-FVSTT[Phe(4-CF3)][NMeA][Phe(4-CF3)][NMeA]ERPCG-NH2; thioether N-13) | 55
CC(C)[C@@H]1NC(=O)[C@H](Cc2ccccc2)NC(=O)CSC[C@@H](C(N)=O)NC(=O)[C@@H]2CCCN2C(=O)[C@H](C)NC(=O)C(CC(=O)O)NC(=O)[C@H](C)N(C)C(=O)[C@H](Cc2ccc(Cl)cc2)NC(=O)[C@H](C)N(C)C(=O)[C@H](Cc2ccccc2)NC(=O)[C@H]([C@@H](C)O)NC(=O)[C@H]([C@@H](C)O)NC(=O)[C@H](CCO)NC1=O (stereo partly drawn) [Example 2-3, Ac*-F-V-HomoSer-T-T-F-(N-Me)A-(p-Cl)F-(N-Me)A-D-A-P-C*-NH2] ({CH2CO}-FV[hSer]TTF[NMeA][Phe(4-Cl)][NMeA][ξD]APC-NH2; thioether N-13) | 75
CC(C)[C@@H]1NC(=O)[C@H](Cc2ccccc2)NC(=O)CSC[C@@H](C(N)=O)NC(=O)[C@@H]2CCCN2C(=O)[C@H](C)NC(=O)[C@H](CC(N)=O)NC(=O)[C@H](C)N(C)C(=O)[C@H](Cc2ccc(Cl)cc2)NC(=O)[C@H](C)N(C)C(=O)[C@H](Cc2ccccc2)NC(=O)[C@H]([C@@H](C)O)NC(=O)[C@H]([C@@H](C)O)NC(=O)[C@H](C)NC1=O [Example 2-5, Ac*-F-V-A-T-T-F-(N-Me)A-(p-Cl)F-(N-Me)A-N-A-P-C*-NH2] ({CH2CO}-FVATTF[NMeA][Phe(4-Cl)][NMeA]NAPC-NH2; thioether N-13) | 46
CCNC(=O)[C@@H]1CSCC(=O)N[C@@H](Cc2ccccc2)C(=O)N[C@@H](C(C)C)C(=O)N2CCC[C@H]2C(=O)N[C@@H]([C@@H](C)O)C(=O)N[C@@H]([C@@H](C)O)C(=O)N[C@@H](Cc2ccc(-c3ccccc3)cc2)C(=O)N(C)[C@@H](C)C(=O)N[C@@H](Cc2ccc(-c3ccccc3)cc2)C(=O)N(C)[C@@H](C)C(=O)N[C@@H](CCC(=O)O)C(=O)N[C@@H](C)C(=O)N2CCC[C@H]2C(=O)N1 [Example 3-3, Ac*-F-V-P-T-T-B-(N-Me)A-B-(N-Me)A-E-A-P-C*-NHEt] | 87
CC(C)[C@@H]1NC(=O)[C@H]([C@@H](C)O)NC(=O)[C@H]([C@@H](C)O)NC(=O)[C@@H]2CCCN2C(=O)[C@H](C(C)C)NC(=O)[C@H](Cc2ccccc2)NC(=O)CSC[C@@H](C(N)=O)NC(=O)[C@@H]2CCCN2C(=O)[C@H](C)NC(=O)[C@H](CCC(=O)O)NC(=O)[C@H](C)N(C)C(=O)[C@H](Cc2ccc(Cl)cc2)NC(=O)[C@H](C)N(C)C1=O [Example 2-6, Ac*-F-V-P-T-T-V-(N-Me)A-(p-Cl)F-(N-Me)A-E-A-P-C*-NH2] ({CH2CO}-FVPTTV[NMeA][Phe(4-Cl)][NMeA]EAPC-NH2; thioether N-13) | 83
CC(C)[C@@H]1NC(=O)[C@H](Cc2ccccc2)NC(=O)CSC[C@@H](C(=O)NCC(N)=O)NC(=O)[C@@H]2CCCN2C(=O)[C@H](CO)NC(=O)[C@H](CC(N)=O)NC(=O)[C@H](C)N(C)C(=O)[C@H](Cc2ccc(-c3ccccc3)cc2)NC(=O)[C@H](Cc2ccccc2)N(C)C(=O)[C@H](CO)NC(=O)[C@H]([C@@H](C)O)NC(=O)[C@H]([C@@H](C)O)NC(=O)[C@H](CC(=O)O)NC1=O [Example 1-3, Ac*-F-V-D-T-T-S-(N-Me)F-B-(N-Me)A-N-S-P-C*-G-NH2] ({CH2CO}-FVDTTS[NMeF][Bip][NMeA]NSPCG-NH2; thioether N-13) | 55
CCNC(=O)[C@@H]1CSCC(=O)N[C@@H](Cc2ccccc2)C(=O)N[C@@H](C(C)C)C(=O)N2CCC[C@H]2C(=O)N[C@@H]([C@@H](C)O)C(=O)N[C@@H]([C@@H](C)O)C(=O)N[C@@H](Cc2ccccc2)C(=O)N(C)[C@@H](C)C(=O)N[C@@H](Cc2ccc(-c3ccccc3)cc2)C(=O)N(C)[C@@H](C)C(=O)N[C@@H](CCC(=O)O)C(=O)N[C@@H](C)C(=O)N2CCC[C@H]2C(=O)N1 [Example 3-2, Ac*-F-V-P-T-T-F-(N-Me)A-B-(N-Me)A-E-A-P-C*-NHEt] ({CH2CO}-FVPTTF[NMeA][Bip][NMeA]EAPC-NHEt; thioether N-13) | 83
CCNC(=O)[C@@H]1CSCC(=O)N[C@@H](Cc2ccccc2)C(=O)N[C@@H](C(C)C)C(=O)N2CCC[C@H]2C(=O)N[C@@H]([C@@H](C)O)C(=O)N[C@@H]([C@@H](C)O)C(=O)N[C@@H](Cc2ccc(-c3ccccc3)cc2)C(=O)N(C)[C@@H](C)C(=O)N[C@@H](Cc2ccc(-c3ccccc3)cc2)C(=O)N(C)[C@@H](C)C(=O)N[C@@H](C)C(=O)N[C@@H](C)C(=O)N2CCC[C@H]2C(=O)N1 [Example 3-4, Ac*-F-V-P-T-T-B-(N-Me)A-B-(N-Me)A-A-A-P-C*-NHEt] ({CH2CO}-FVPTT[Bip][NMeA][Bip][NMeA]AAPC-NHEt; thioether N-13) | 49
CC(C)[C@@H]1NC(=O)[C@H](Cc2ccccc2)NC(=O)CSC[C@@H](C(=O)NCC(N)=O)NC(=O)[C@@H]2CCCN2C(=O)[C@H](CO)NC(=O)[C@H](CC(=O)O)NC(=O)[C@H](C)N(C)C(=O)[C@H](Cc2ccc(-c3ccccc3)cc2)NC(=O)[C@H](C)N(C)C(=O)[C@H](Cc2ccc(-c3ccccc3)cc2)NC(=O)[C@H]([C@@H](C)O)NC(=O)[C@H]([C@@H](C)O)NC(=O)[C@H](CO)NC1=O [Example 1-8, Ac*-F-V-S-T-T-B-(N-Me)A-B-(N-Me)A-D-S-P-C*-G-NH2] ({CH2CO}-FVSTT[Bip][NMeA][Bip][NMeA]DSPCG-NH2; thioether N-13) | 58
CC(C)[C@@H]1NC(=O)[C@H](Cc2ccccc2)NC(=O)CSC[C@@H](C(=O)NCC(N)=O)NC(=O)[C@@H]2CCCN2C(=O)[C@H](Cc2cnc[nH]2)NC(=O)[C@H](CC(N)=O)NC(=O)[C@H](C)N(C)C(=O)[C@H](Cc2ccc(-c3ccccc3)cc2)NC(=O)[C@H](C)N(C)C(=O)[C@H](Cc2ccc(O)cc2)NC(=O)[C@H]([C@@H](C)O)NC(=O)[C@H](CO)NC(=O)[C@H](CC(=O)O)NC1=O [Example 1-4, Ac*-F-V-D-S-T-Y-(N-Me)A-B-(N-Me)A-N-H-P-C*-G-NH2] ({CH2CO}-FVDSTY[NMeA][Bip][NMeA]NHPCG-NH2; thioether N-13) | 60

Reference: US12209144B2, “Cyclic peptides as proprotein convertase subtilisin/kexin type 9 (PCSK9) inhibitors for the treatment of metabolic disorders” (Novartis AG, priority 2018, dated 2025)
